In patent US11661426B2, “Imidazole-containing inhibitors of ALK2 kinase” (BioCryst Pharmaceuticals, Inc., priority 2017, dated 2023) one finds IC50 data, which are given here for 28 molecules.

ALK2, sequence (Q04771 21-509): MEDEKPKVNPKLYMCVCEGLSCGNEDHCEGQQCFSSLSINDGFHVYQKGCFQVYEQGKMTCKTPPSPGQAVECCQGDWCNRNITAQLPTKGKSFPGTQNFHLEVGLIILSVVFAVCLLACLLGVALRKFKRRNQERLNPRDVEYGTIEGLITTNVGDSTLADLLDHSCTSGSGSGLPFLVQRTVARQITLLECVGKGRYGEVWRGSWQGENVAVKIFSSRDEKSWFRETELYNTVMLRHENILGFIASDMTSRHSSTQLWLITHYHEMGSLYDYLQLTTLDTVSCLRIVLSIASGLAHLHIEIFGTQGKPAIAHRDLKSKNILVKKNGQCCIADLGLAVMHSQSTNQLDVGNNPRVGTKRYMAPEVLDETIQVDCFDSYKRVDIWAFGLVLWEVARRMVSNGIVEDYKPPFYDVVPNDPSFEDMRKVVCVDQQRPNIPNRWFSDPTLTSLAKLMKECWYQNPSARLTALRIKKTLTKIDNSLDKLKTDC

For this experiment, the target named is ALK2 (Homo sapiens (Human), UniProt Q04771). The experiment in a line: ALK2 inhibition, LanthaScreen Eu Kinase Binding Assay (ThermoFisher Scientific / Life Technologies). The conditions noted are these: read-out: Measured Ki (IC50) Value for Compounds: IC50. As for the experimental part:
Biochemical assays to measure the inhibitory effects of the compounds were performed by ThermoFisher Scientific (Life Technologies). ALK2 inhibition was tested using LanthaScreen™ Eu Kinase Binding Assay screening protocol.
Background: In TR-FRET formats the signal depends on donor and acceptor labels being close together.
A word on the IC50: it is the point on the concentration scale where inhibition reaches its midpoint. As to `COc1cc(-n2cnc(Nc3nc(N4CCC[C@H]4CO)nc4sccc34)c2)cc(OC)c1OC` [Compound 84b, (S)-(1-(4-((1-(3,4,5-trimethoxyphenyl)-1H-imidazol-4-yl)amino)thieno[2,3-d]pyrimidin-2-yl)pyrrolidin-2-yl)methanol], the IC50 was under 100 nM. Turning to `COc1cc(-n2cnc(Nc3nc(N4CCC[C@H]4CO)nn4c(Br)ccc34)c2)cc(OC)c1OC` [Compound 85b, (S)-(1-(7-bromo-4-(1-(3,4,5-trimethoxyphenyl)-1H-imidazol-4-ylamino)pyrrolo[1,2-f][1,2,4]triazin-2-yl)pyrrolidin-2-yl)methanol], the IC50 was under 100 nM. Consider `COc1cc(-n2cnc(Nc3nc(N4CCC[C@H]4CO)nc4ccccc34)c2)cc(OC)c1OC` [Compound 86b, (S)-(1-(4-((1-(3,4,5-trimethoxyphenyl)-1H-imidazol-4-yl)amino)quinazolin-2-yl)pyrrolidin-2-yl)methanol], for which the IC50 was under 100 nM.

For `OC[C@@H]1CCCN1c1nc(Nc2cn(-c3ccccc3)cn2)c2scc(Br)c2n1` [Compound 87c, (S)-(1-(7-bromo-4-((1-phenyl-1H-imidazol-4-yl)amino)thieno[3,2-d]pyrimidin-2-yl)pyrrolidin-2-yl)methanol], the IC50 was 100 to 1000 nM. For `COc1ccc(-c2nc(Nc3cn(-c4cc(OC)c(OC)c(OC)c4)cn3)c3cccn3n2)cc1` [Compound 88a, 2-(4-methoxyphenyl)-N-(1-(3,4,5-trimethoxyphenyl)-1H-imidazol-4-yl)pyrrolo[2,1-f][1,2,4]triazin-4-amine], the IC50 was under 100 nM. Under `COc1ccc(-c2csc3c(Nc4cn(-c5ccccc5)cn4)nc(N4CCC[C@H]4CO)nc23)cc1` [Compound 89a, (S)-(1-(7-(4-methoxyphenyl)-4-(1-phenyl-1H-imidazol-4-ylamino)thieno[3,2-d]pyrimidin-2-yl)pyrrolidin-2-yl)methanol] stands 100 to 1000 nM; under `COc1ccc(-c2ccc3c(Nc4cn(-c5cc(OC)c(OC)c(OC)c5)cn4)nc(N4CCC[C@H]4CO)nn23)cc1` [Compound 90a, (S)-(1-(7-(4-methoxyphenyl)-4-(1-(3,4,5-trimethoxyphenyl)-1H-imidazol-4-ylamino)pyrrolo[1,2-f][1,2,4]triazin-2-yl)pyrrolidin-2-yl)methanol], under 100 nM. On to `COc1cc(-n2cnc(Nc3nc(N4CCC[C@H]4C(N)=O)nn4cccc34)c2)cc(OC)c1OC` [Compound 91a, (S)-1-(4-(1-(3,4,5-trimethoxyphenyl)-1H-imidazol-4-ylamino)pyrrolo[1,2-f][1,2,4]triazin-2-yl)pyrrolidine-2-carboxamide], for which the IC50 is under 100 nM. Turning to `COc1cc(-n2cnc(Nc3nc(N4CCC[C@H]4CO)nc4sc(C(=O)OCC(C)C)cc34)c2)cc(OC)c1OC` [Compound 92d, (S)-isobutyl 2-(2-(hydroxymethyl)pyrrolidin-1-yl)-4-((1-(3,4,5-trimethoxyphenyl)-1H-imidazol-4-yl)amino)thieno[2,3-d]pyrimidine-6-carboxylate], the IC50 fell in the range of 100 to 1000 nM. As to `NC(=O)c1ccc(-n2cnc(Nc3nc(N4CCC[C@H]4CO)nn4cccc34)c2)cc1` [Compound 93c, (S)-4-(4-(2-(2-(hydroxymethyl)pyrrolidin-1-yl)pyrrolo[1,2-f][1,2,4]triazin-4-ylamino)-1H-imidazol-1-yl)benzamide], the half-inhibitory concentration (IC50) was under 100 nM. In the case of `NC(=O)c1cccc(-n2cnc(Nc3nc(N4CCC[C@H]4CO)nn4cccc34)c2)c1` [Compound 94c, (S)-3-(4-(2-(2-(hydroxymethyl)pyrrolidin-1-yl)pyrrolo[1,2-f][1,2,4]triazin-4-ylamino)-1H-imidazol-1-yl)benzamide], the IC50 was under 100 nM.

As to `CC(=O)c1ccc(-n2cnc(Nc3nc(N4CCC[C@H]4CO)nn4cccc34)c2)cc1` [Compound 95c, (S)-1-(4-(4-(2-(2-(hydroxymethyl)pyrrolidin-1-yl)pyrrolo[1,2-f][1,2,4]triazin-4-ylamino)-1H-imidazol-1-yl)phenyl)ethanone], the half-inhibitory concentration (IC50) was under 100 nM. As to `COc1cc(-n2cnc(Nc3nc(N4CCC[C@H]4CO)c4cccn4n3)c2)cc(OC)c1OC` [Compound 96b, (S)-(1-(2-((1-(3,4,5-trimethoxyphenyl)-1H-imidazol-4-yl)amino)pyrrolo[2,1-f][1,2,4]triazin-4-yl)pyrrolidin-2-yl)methanol], the IC50 is under 100 nM. Turning to `COc1cc(-n2cnc(Nc3nc(N4CCC[C@H]4CO)nc4sc(CN5CCOCC5)cc34)c2)cc(OC)c1OC` [Compound 97d, (S)-(1-(6-(morpholinomethyl)-4-((1-(3,4,5-trimethoxyphenyl)-1H-imidazol-4-yl)amino)thieno[2,3-d]pyrimidin-2-yl)pyrrolidin-2-yl)methanol], the IC50 was under 100 nM. In the case of `COc1cc(-n2cnc(Nc3nc(N4CCC[C@H]4CO)nn4c(C5=CCN(C(=O)OC(C)(C)C)CC5)ccc34)c2)cc(OC)c1OC` [Compound 98a, (S)-tert-butyl 4-(2-(2-(hydroxymethyl)pyrrolidin-1-yl)-4-(1-(3,4,5-trimethoxyphenyl)-1H-imidazol-4-ylamino)pyrrolo[1,2-f][1,2,4]triazin-7-yl)-5,6-dihydropyridine-1(2H)-carboxylate], the IC50 was under 100 nM. For the molecule `COc1cc(-n2cnc(Nc3nc(N4CCC[C@H]4CO)nn4c(C(C)O)ccc34)c2)cc(OC)c1OC` (stereo partly drawn) [Compound 99b, 1-(2-((S)-2-(hydroxymethyl)pyrrolidin-1-yl)-4-((1-(3,4,5-trimethoxyphenyl)-1H-imidazol-4-yl)amino)pyrrolo[2,1-f][1,2,4]triazin-7-yl)ethanol], the IC50 was under 100 nM. Turning to `COc1cc(-n2cnc(Nc3nc(N4CCC[C@H]4CO)nn4c(CO)ccc34)c2)cc(OC)c1OC` [Compound 101c, (S)-(1-(7-(hydroxymethyl)-4-((1-(3,4,5-trimethoxyphenyl)-1H-imidazol-4-yl)amino)pyrrolo[2,1-f][1,2,4]triazin-2-yl)pyrrolidin-2-yl)methanol], the IC50 was under 100 nM. The value for `COc1cc(-n2cnc(Nc3nc(N4CCC[C@H]4CO)nc4sc(CN5CCC(O)CC5)cc34)c2)cc(OC)c1OC` [Compound 102b, (S)-1-((2-(2-(hydroxymethyl)pyrrolidin-1-yl)-4-((1-(3,4,5-trimethoxyphenyl)-1H-imidazol-4-yl)amino)thieno[2,3-d]pyrimidin-6-yl)methyl)piperidin-4-ol] was under 100 nM; that for `COc1cc(-n2cnc(Nc3nc(N4CCC[C@H]4CO)nc4ccoc34)c2)cc(OC)c1OC` [Compound 103b, (S)-(1-(4-((1-(3,4,5-trimethoxyphenyl)-1H-imidazol-4-yl)amino)furo[3,2-d]pyrimidin-2-yl)pyrrolidin-2-yl)methanol] was under 100 nM; that for `COc1cc(-n2cnc(Nc3nc(N4CCC[C@H]4CO)nc4sc(CN5CCN(C)CC5)cc34)c2)cc(OC)c1OC` [Compound 104b, (S)-(1-(6-((4-methylpiperazin-1-yl)methyl)-4-((1-(3,4,5-trimethoxyphenyl)-1H-imidazol-4-yl)amino)thieno[2,3-d]pyrimidin-2-yl)pyrrolidin-2-yl)methanol] was under 100 nM. `COc1cc(-n2cnc(Nc3nc(N4CCC[C@H]4CO)nn4c(CN5CCCCC5)ccc34)c2)cc(OC)c1OC` [Compound 105b, (S)-(1-(7-(piperidin-1-ylmethyl)-4-((1-(3,4,5-trimethoxyphenyl)-1H-imidazol-4-yl)amino)pyrrolo[2,1-f][1,2,4]triazin-2-yl)pyrrolidin-2-yl)methanol]: the IC50 was under 100 nM. With `COc1cc(-n2cnc(Nc3nc(N4CCC[C@H]4CO)nn4c(CN5CCN(C6CC6)CC5)ccc34)c2)cc(OC)c1OC` [Compound 106b, (S)-(1-(7-((4-cyclopropylpiperazin-1-yl)methyl)-4-((1-(3,4,5-trimethoxyphenyl)-1H-imidazol-4-yl)amino)pyrrolo[2,1-f][1,2,4]triazin-2-yl)pyrrolidin-2-yl)methanol], the IC50 was under 100 nM. Under `COc1cc(-n2cnc(Nc3nc(N4CCC[C@H]4CO)nn4c(C5=CCNCC5)ccc34)c2)cc(OC)c1OC` [Compound 107a, (S)-(1-(7-(1,2,3,6-tetrahydropyridin-4-yl)-4-(1-(3,4,5-trimethoxyphenyl)-1H-imidazol-4-ylamino)pyrrolo[1,2-f][1,2,4]triazin-2-yl)pyrrolidin-2-yl)methanol] stands under 100 nM; under `COc1cc(-n2cnc(Nc3nc(N4CCC[C@H]4CO)nc4sc(CN5CCN(c6ccccn6)CC5)cc34)c2)cc(OC)c1OC` [Compound 108b, (S)-(1-(6-((4-(pyridin-2-yl)piperazin-1-yl)methyl)-4-((1-(3,4,5-trimethoxyphenyl)-1H-imidazol-4-yl)amino)thieno[2,3-d]pyrimidin-2-yl)pyrrolidin-2-yl)methanol], under 100 nM.

`COc1cc(-n2cnc(Nc3nc(-c4cccc(C=O)c4)nc4sc(CO)cc34)c2)cc(OC)c1OC` [Compound 109a, 3-(6-(hydroxymethyl)-4-((1-(3,4,5-trimethoxyphenyl)-1H-imidazol-4-yl)amino)thieno[2,3-d]pyrimidin-2-yl)benzaldehyde]: the IC50 was under 100 nM. For the molecule `COc1cc(-n2cnc(Nc3nc(-c4cccc(C=O)c4)nn4cccc34)c2)cc(OC)c1OC` [Compound 110a, 3-(4-((1-(3,4,5-trimethoxyphenyl)-1H-imidazol-4-yl)amino)pyrrolo[2,1-f][1,2,4]triazin-2-yl)benzaldehyde], the IC50 was under 100 nM. For the molecule `COc1cc(-n2cnc(Nc3nc(N4CCC[C@H]4CO)nn4c(CN5CCOCC5)ccc34)c2)cc(OC)c1OC` [Compound 111b, (S)-(1-(7-(morpholinomethyl)-4-((1-(3,4,5-trimethoxyphenyl)-1H-imidazol-4-yl)amino)pyrrolo[2,1-f][1,2,4]triazin-2-yl)pyrrolidin-2-yl)methanol], the concentration for half-maximal inhibition (IC50) was under 100 nM. In the case of `COc1cc(-n2cnc(Nc3nc(N4CCC[C@H]4CO)nn4c(CN5CCN(C)CC5)ccc34)c2)cc(OC)c1OC` [Compound 112b, (S)-(1-(7-((4-methylpiperazin-1-yl)methyl)-4-((1-(3,4,5-trimethoxyphenyl)-1H-imidazol-4-yl)amino)pyrrolo[2,1-f][1,2,4]triazin-2-yl)pyrrolidin-2-yl)methanol], the IC50 is under 100 nM.
